The subject of test [1] is Vimentin, Iba1 and IL-6 / MBP and MOG. The experiment in a line: Gene-expression signature from RT-qPCR of cerebellum (inflammation/myelin ratio). The class given is in vivo, mice. The following applies: donepezil vs vehicle. On the procedure: Total RNAs were isolated from cerebellum tissues using the Nucleospin® total RNA isolation kit (Macherey-Nagel, Germany). The concentrations of isolated RNA from each sample were assessed using a NanoDrop 2000 Spectrophotometer (Thermo Scientific, USA). 10 µL of the isolated RNA were equalized to 20 microlitres (µL) using RNase-free water. Then, the cDNA was synthesized by reverse transcription using the High-Capacity cDNA manufacture kit (Applied Biosystems™, Thermo Fisher Scientific, USA). Equal volumes of the isolated RNA and cDNA mastermix were mixed, centrifuged, and loaded in the thermal cycler (T100™, BIO-RAD, USA). The cDNA was diluted 1:2 with RNase-free water and stored at -20 deg.°C prior to qPCR analysis. The manufactured cDNA was amplified using multi-target qPCR. cDNA and PCR mastermix, containing the target and endogenous primers, as well as the Taqman mastermix, were loaded on a 96-well PCR fast plate (Thermo Fisher Scientific, USA) in an ice block. […] Gene expression data were analyzed using the Livak and Schmittgen (2001) ΔΔCt method, to produce a relative quantity (RQ) value of target gene expression relative to GAPDH expression as per formula in equations 1-3: (1) ΔCt=Ct target- Ct endogenous; (2) ΔΔCt= ΔCt sample- ΔCt control sample; (3) RQ=2-ΔΔCt.
Data normality was assessed using the Shapiro-Wilk test. […]

The next test addresses T1, Sig-1R (Rattus norvegicus, UniProt Q9R0C9).
T1 construct: host or cells: living rats
The following applies: rats; cited from earlier work.

Molecules are shown by their SMILES.

T1 sequence (Q9R0C9 whole entry): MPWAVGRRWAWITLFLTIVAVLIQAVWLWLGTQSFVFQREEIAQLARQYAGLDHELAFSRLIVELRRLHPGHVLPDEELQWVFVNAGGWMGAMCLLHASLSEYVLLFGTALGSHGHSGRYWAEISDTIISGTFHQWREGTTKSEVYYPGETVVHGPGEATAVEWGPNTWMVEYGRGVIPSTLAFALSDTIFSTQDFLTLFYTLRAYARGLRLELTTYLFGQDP

For `COc1cc2c(cc1OC)C(=O)C(CC1CCN(Cc3ccccc3)CC1)C2` (racemic) [donepezil, (RS)-2-[(1-Benzyl-4-piperidyl)methyl]-5,6-dimethoxy-2,3-dihydroinden-1-one], the “gene-expression-signature (Vimentin, Iba1 and IL-6 divided by MBP and MOG)” value is “significant decrease” in test [1] (twitcher mice, p=0.0016) and “no significant difference” in test [1] (wild-type mice, p=0.2495). In addition, at Sig-1R, the “dose corresponding to EC50 for receptor occupancy” value is listed as 1.07 mg/kg.

Values taken from patent EP4534086A1, “TREATMENT OF LEUKODYSTROPHY” (priority 2023, dated 2025).
